Values of other authors, collected in patent publication US6514710B1, “Method of using cyclic peptides to inhibit binding to urokinase-type plasminogen activator receptor” (Angstrom Pharmaceuticals, Inc., priority 1996, dated 2003).
Where two headings read alike, the source gives them in different places.

Legend:
uPAR [1] = biological target: T1, uPAR (Homo sapiens, UniProt Q03405); settings: read-out: IC50, prevention of uPA binding to uPAR
[2] = test system: murine Lewis Lung carcinoma; settings: murine Lewis Lung carcinoma in mice; peptides derived from the mouse sequence
uPAR [3] = biological target: T1, uPAR; settings: read-out: IC50, inhibition of the binding of uPA to uPAR

T1 sequence (Q03405 23-305): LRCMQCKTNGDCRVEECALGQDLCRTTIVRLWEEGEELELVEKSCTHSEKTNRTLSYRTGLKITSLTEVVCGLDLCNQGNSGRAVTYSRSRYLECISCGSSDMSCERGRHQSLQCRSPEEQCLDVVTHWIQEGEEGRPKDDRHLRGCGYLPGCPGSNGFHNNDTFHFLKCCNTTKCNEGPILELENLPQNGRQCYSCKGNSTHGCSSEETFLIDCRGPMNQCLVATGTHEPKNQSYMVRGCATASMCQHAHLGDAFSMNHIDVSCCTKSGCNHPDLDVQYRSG

IC50 (uPAR [1]) [nM]	IC50 (uPAR [3]) [nM]	Substance	inhibition of spontaneous metastasis [2]
100		[Ala^19]uPA-(12-32) [[Ala^19]uPA-(12-32) open chain form]	
40		[Ala^19]uPA-(12-32) [[Ala^19]uPA-(12-32) oxidized cyclic form]	
		corresponding linear shorter peptide (20-30): linear shorter peptide (20-30) corresponding to the mouse sequence (CVSYKYFSRIR; UniProt P06869 40-50, looked up, fragment)	had no effect
	1000	linear peptide 20-30: linear peptide of uPA residues 20-30 (VSNKYFSNIHW; UniProt P00749 40-50, looked up, fragment)	
	100	peptide 17-34: longer peptide of uPA residues 17-34 (GTCVSNKYFSNIHWCNCP; UniProt P00749 37-54, looked up, fragment)	
		peptide (17-34) derived from the mouse sequence: corresponding longer peptide (17-34) derived from the mouse uPA sequence (GGVCVSYKYFSRIRRCSC; UniProt P06869 37-54, looked up, fragment)	inhibited spontaneous metastasis
